Laboratory results: US20190247376A1, “NICOTINIC ACETYLCHOLINE RECEPTOR AGONIST ATTENUATES ILC2-DEPENDENT AIRWAY HYPERREACTIVITY” (University of Southern California, priority 2016, published 2019)

Assays:
lung ILC2s = test: Gene expression analysis of ILC2s with NanoString nCounter technology; assay type: cell-based, mouse; conditions: ILC2s from rm-IL-33 challenged mice with or without agonist
Excerpt: FIGS. 5A-5F: Cholinergic signal attenuates ILC2 proliferation and GATA3 expression. (FIG. 5A) Mean fluorescence intensity of Ki67 and percentage of Ki67+ cells in isolated lung ILC2s, stimulated with IL-33 in the absence and presence of α7nAChR. (FIG. 5B) Mean fluorescence intensity of GATA3 in isolated lung ILC2s, stimulated with IL-33 in the absence and presence of α7nAChR. One representative experiment of two is shown (n=5; Student's t test *, p<0.05; **, p<0.01; ***p<0.001). […] FACS-purified ILC2s from WT mice challenged with rm-IL-33 with or without α7nAChR agonist as described in FIG. 3A were quantified by NanoString nCounter technology. Data range from −1 to +1 for the most reduced and most increased gene expression, respectively. (FIG. 5D) Expression of NF-κB p65 in isolated lung ILC2s from mice challenged with IL-33 with (dotted line) or without (thick line) α7nAChR agonist. The level of isotype-matched stain control is shown as a gray-filled histogram. (FIG. 5E) Expression of phosphorylated IKKα/β (Ser176/180) in isolated lung ILC2s stimulated with IL-33, with (dotted line) or without (thick line) α7nAChR agonist for 24 hours. The level of isotype-matched stain control is shown as a gray-filled histogram. (FIG. 5F) Mean fluorescence intensity of phosphorylated IKKα/β with or without α7nAChR agonist.
Next, to investigate the molecular mechanism of α7nAChR agonist-mediated anti-inflammatory effects, Applicants analyzed the gene expression profile of ILC2s with or without α7nAChR agonist treatment by NanoString technology as described in the methods. […] Applicants further confirmed by flow cytometry that α7nAChR agonist reduced NF-κB p65 expression in ILC2s (FIG. 5D). To better establish the underlying mechanisms, Applicants explored the signaling pathway upstream of NF-κB by measuring the activated form of IKKα/β, which is phosphorylated on serine residues 176 and 180. Consistent with our previous results shown in FIG. 5D, α7nAChR agonist reduced phosphorylated IKKα/β expression in ILC2s (FIGS. 5E-5F). NF-κB and STAT-6 are both critical for GATA-3 transcription. The inhibition of GATA-3 expression results in a down-regulation of IL-5, IL-9 and IL-13 secretion from ILC2s.
The difference in the abundance of scripts between ILC2s purified from rm-IL33 administered mice with or without α7nAChR agonist were analyzed with NanoString nCounter technology. Heat plots were generated with R statistical software.

[1] = tested on: Rag2 GC double knockout mice with adoptively transferred human ILC2s; test: Human ILC2-mediated AHR in humanized ILC2 mice; assay type: in vivo, mouse; conditions: i.n. IL-33, agonist three consecutive days
Protocol: FIGS. 7A-7E: α7nAChR agonist prevents human ILC2s mediated AHR and allergic. (FIG. 7A) Human ILC2s were purified from PBMCs via FACS and cultured (10^4 cells per mL) in the presence of recombinant human IL-33 (20 ng mL^−1), IL-2 (10 ng mL^−1), and IL-7 (20 ng mL^−1), with or without α7nAChR agonist for 24h. In the right panel, data are presented as means of four individual donors. […]
Finally, to confirm the efficacy of α7nAChR agonist treatment in human ILC2-mediated AHR, sorted human ILC2s (hILC2s) were cultured in the presence of rh-IL-2 (20 ng mL^−1) and rh-IL-7 (20 ng mL^−1) for 48 hours. […] These humanized mice were given i.n. rh-IL33 (1 μg per mice) with or without α7nAChR agonists (125 µg mL^−1) for three consecutive days, and then AHR was evaluated (FIG. 7B). […]
For human peripheral ILC2s, peripheral blood mononuclear cells (PBMCs) were first isolated from human fresh blood by diluting the blood 1:1 in PBS, adding to SepMate™-50 separation tubes (STEMCELL Technologies Inc, Vancouver, Canada) prefilled with 15-mL Lymphoprep™ each (Axis-Shield, Oslo, Norway), and centrifuging at 1200 g for 15 minutes. […] On day 4, lung function was measured and BAL was performed and analyzed.

α7 subtype of nAChR = α7 subtype of nAChR (Homo sapiens, UniProt P36544); conditions: cited from earlier work
Sequence of α7 subtype of nAChR (P36544 23-502): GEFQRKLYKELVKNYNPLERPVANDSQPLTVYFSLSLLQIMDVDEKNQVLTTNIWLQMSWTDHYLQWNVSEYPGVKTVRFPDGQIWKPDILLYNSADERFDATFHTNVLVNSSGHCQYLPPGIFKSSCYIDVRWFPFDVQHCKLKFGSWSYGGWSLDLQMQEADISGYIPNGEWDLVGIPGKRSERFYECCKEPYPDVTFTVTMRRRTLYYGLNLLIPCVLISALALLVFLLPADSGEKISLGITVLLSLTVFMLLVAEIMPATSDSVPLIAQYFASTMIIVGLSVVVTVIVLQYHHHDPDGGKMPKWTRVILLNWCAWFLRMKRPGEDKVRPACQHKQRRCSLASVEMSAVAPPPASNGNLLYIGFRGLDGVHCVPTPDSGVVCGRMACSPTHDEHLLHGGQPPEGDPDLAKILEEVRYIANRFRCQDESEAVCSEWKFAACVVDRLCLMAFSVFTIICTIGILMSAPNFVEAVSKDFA

SMILES: COc1ccc(/C=C2\CCCN=C2c2cccnc2)c(OC)c1 [GTS-21, 3-[(3E)-3-[(2,4-dimethoxyphenyl)methylidene]-5,6-dihydro-4H-pyridin-2-yl]pyridine]
- RelA expression (lung ILC2s): unaffected
- expression at the mRNA level of NF-κB1 (lung ILC2s): decrease
- expression of GATA-3, STAT-6, NF-κB, IL-5, IL-9 and IL-13 (IL-33/IL-25 signaling pathway genes) (lung ILC2s): inhibited
- expression of STAT-5a, STAT-5b, and IL-2 receptors (IL-2/IL-7 signaling panel) (lung ILC2s): relatively unaffected
- factors associated with apoptosis (Casp3, Casp8, Bcl-2) (lung ILC2s): did not activate
- ILC2-mediated AHR (lung resistance) [1]: dampened
- allergic inflammation (eosinophils in BALF, lung ILC2s) [1]: dampened
- activation of nAChR subtypes (α7 subtype of nAChR): activates only the α7 subtype to a significant extent
